Measurements from patent publication US20260053811A1, “METHODS OF TREATING HYPERTENSION IN OBESE SUBJECTS” (Mineralys Therapeutics, Inc., priority 2022, published 2026).

System: hypertensive subjects
Assay: Seated automated office blood pressure (AOBP) in randomized, placebo-controlled, dose-ranging study
Type: in vivo, human
Details: Part 1, 100 mg QD
Procedure: A randomized, double-blinded, placebo-controlled, dose-ranging, multicenter study was conducted to evaluate the effect of orally administered Compound A HBr on blood pressure for the treatment of hypertension in male and female subjects ≥18 years of age.
The study consists of two parts. For enrollment into Part 1 of the study, a subject's value of plasma renin activity (PRA) must be ≤1 ng/mL/h based on morning measurement. If the value of PRA >1 ng/mL/h based on morning measurement, then subjects may be eligible to enter Part 2 of the study.
For Part 1, 163 enrolled subjects ≥18 years of age were randomized into 6 equal treatment groups (1:1:1:1:1:1) to 12.5 mg BID, 25 mg BID, 12.5 mg QD, 50 mg QD, 100 mg QD, or placebo. After a review of interim clinical data, the 2 lowest dose levels (12.5 mg QD and 12.5 mg BID) were stopped for future randomization due to a lack of consistent meaningful reduction of blood pressure, but the patients randomized to that point remained in the study through completion. Thus, after the review of interim clinical data, subjects were randomized into 4 equal treatment groups (1:1:1:1) to 25 mg BID, 50 mg QD, 100 mg QD, or placebo.
For Part 2, 36 enrolled subjects ≥18 years of age were randomized (5:1) to either 100 mg QD Compound A HBr or placebo such that the Compound A HBr treatment group consisted of approximately 30 subjects and the placebo treatment group will consist of approximately 6 subjects.
Subjects orally administered the assigned study drug (Compound A HBr or placebo) according to the assigned dosing regimen for 8 weeks beginning on Study Day 1. All subjects in Part 1 (regardless of dosing group) received BID dosing to preserve the integrity of the blind; active drug is administered as the morning dose for all QD dose groups. Subjects returned to the research facility or were seen by the clinical investigator or approved home health care professional at the end of Study Weeks 1, 2, 3, 4, 5, 6, 7, and 8 (±2 days) for protocol-defined efficacy and safety assessments and procedures, assessment of adverse events (AEs), and confirmation of compliance with study drug usage. Subjects also completed a telephone visit and blood pressure (BP) check at home approximately 3 days post last dose of study drug. Subjects attended up to 14 full clinic visits, including a pre-Screening visit, a Screening/start of Placebo Run-in visit, a second visit during Placebo Run-in, a clinic visit to initiate the ABPM procedure, a Randomization visit, 8 weekly visits during double-blind treatment, and an end-of-study visit scheduled 4 weeks after the last study treatment for final efficacy and safety assessments.
An automated oscillometric sphygmomanometer device was used to measure the subjects' systolic and diastolic blood pressure in office after approximately 5 minutes of rest in the seated position.
The primary endpoint is the change in office-measured (mean of last 2 of 5 unattended measurements using an automated oscillometric sphygmomanometer device after approximately 5 minutes of rest in the seated position) systolic blood pressure (SBP) from baseline to the end of Study Week 8.
Secondary endpoints of this study were: • (a) Change in 24-hour ambulatory blood pressure monitoring (ABPM) parameters (systolic and diastolic) from baseline to the end of Study Week 7. • (b) Change in office-measured SBP from baseline to the end of Study Weeks 1, 2, 3, 4, 5, 6, and 7. • (c) Change in office-measured diastolic blood pressure (DBP) from baseline to the end of Study Weeks 1, 2, 3, 4, 5, 6, 7, and 8. • (d) Proportion of subjects who achieve office-measured BP of ≤130/80 mm Hg by the end of Study Week 8.

[1] = Systolic Blood Pressure Tertile at Baseline High
[2] = Systolic Blood Pressure Tertile at Baseline Low
[3] = Systolic Blood Pressure Tertile at Baseline Middle
[4] = Thiazide Diuretic Use at Baseline No

SMILES: CC(=O)N[C@H]1CC[C@H](NC(=O)CN2CCN(c3nncc(-c4ccc(C)cc4)n3)CC2)CC1 [Compound A HBr]
- Mean (SD) Automated Office-Measured Diastolic Blood Pressure at Wk 8 (Age ≥80 yr): 65.75 (11.73) mmHg
- Mean (SD) Automated Office-Measured Systolic Blood Pressure at Wk 8 (Age ≥80 yr): 125.00 (8.04) mmHg
- Mean (SD) Change from Baseline at Week 8 in Automated Office-Measured Diastolic Blood Pressure (Age ≥80 yr): −4.75 (8.03) mmHg
- Mean (SD) Change from Baseline at Week 8 in Automated Office-Measured Systolic Blood Pressure (Age ≥80 yr): −18.13 (12.34) mmHg
- Mean (SD) Automated Office-Measured Diastolic Blood Pressure at Wk 8 (BMI 25−30 kg/m^2): 72.67 (9.33) mmHg
- Mean (SD) Change from Baseline at Week 8 in Automated Office-Measured Diastolic Blood Pressure (BMI 25−30 kg/m^2): −6.50 (7.61) mmHg
- Mean (SD) Automated Office-Measured Diastolic Blood Pressure at Wk 8 (BMI <25 kg/m^2): 78.33 (19.14) mmHg
- Mean (SD) Change from Baseline at Week 8 in Automated Office-Measured Diastolic Blood Pressure (BMI <25 kg/m^2): −0.67 (7.01) mmHg
- Mean (SD) Automated Office-Measured Diastolic Blood Pressure at Wk 8 (BMI >30 kg/m^2): 71.42 (7.10) mmHg
- Mean (SD) Change from Baseline at Week 8 in Automated Office-Measured Diastolic Blood Pressure (BMI >30 kg/m^2): −6.88 (7.81) mmHg
- Mean (SD) Automated Office-Measured Systolic Blood Pressure at Wk 8 (BMI at baseline 25-30 kg/m^2): 129.67 (10.05) mmHg
- Mean (SD) Change from Baseline at Week 8 in Automated Office-Measured Systolic Blood Pressure (BMI at baseline 25-30 kg/m^2): −11.17 (11.94) mmHg
- Mean (SD) Automated Office-Measured Systolic Blood Pressure at Wk 8 (BMI at baseline <25 kg/m^2): 146.00 (18.33) mmHg
- Mean (SD) Change from Baseline at Week 8 in Automated Office-Measured Systolic Blood Pressure (BMI at baseline <25 kg/m^2): −7.83 (17.47) mmHg
- Mean (SD) Automated Office-Measured Systolic Blood Pressure at Wk 8 (BMI at baseline >30 kg/m^2): 129.00 (15.28) mmHg
- Mean (SD) Change from Baseline at Week 8 in Automated Office-Measured Systolic Blood Pressure (BMI at baseline >30 kg/m^2): −18.50 (13.40) mmHg
- Mean (SD) Automated Office-Measured Diastolic Blood Pressure at Wk 8 (Race Black or AA): 71.92 (10.83) mmHg
- Mean (SD) Automated Office-Measured Systolic Blood Pressure at Wk 8 (Race Black or AA): 129.92 (16.18) mmHg
- Mean (SD) Change from Baseline at Week 8 in Automated Office-Measured Diastolic Blood Pressure (Race Black or AA): −7.38 (7.65) mmHg
- Mean (SD) Change from Baseline at Week 8 in Automated Office-Measured Systolic Blood Pressure (Race Black or AA): −17.13 (11.55) mmHg
- Mean (SD) Automated Office-Measured Diastolic Blood Pressure at Wk 8 (Race Other): 74.00 (8.26) mmHg
- Mean (SD) Automated Office-Measured Systolic Blood Pressure at Wk 8 (Race Other): 132.54 (12.47) mmHg
- Mean (SD) Change from Baseline at Week 8 in Automated Office-Measured Diastolic Blood Pressure (Race Other): −3.69 (7.91) mmHg
- Mean (SD) Change from Baseline at Week 8 in Automated Office-Measured Systolic Blood Pressure (Race Other): −11.27 (14.54) mmHg
- Mean (SD) Automated Office-Measured Diastolic Blood Pressure at Wk 8 (Seated SBP Tertile High): 72.11 (11.78) mmHg
- Mean (SD) Change from Baseline at Week 8 in Automated Office-Measured Diastolic Blood Pressure (Seated SBP Tertile High): −8.78 (8.56) mmHg
- Mean (SD) Automated Office-Measured Diastolic Blood Pressure at Wk 8 (Seated SBP Tertile Low): 73.86 (11.01) mmHg
- Mean (SD) Change from Baseline at Week 8 in Automated Office-Measured Diastolic Blood Pressure (Seated SBP Tertile Low): −0.29 (6.44) mmHg
- Mean (SD) Automated Office-Measured Diastolic Blood Pressure at Wk 8 (Seated SBP Tertile Middle): 73.22 (5.97) mmHg
- Mean (SD) Change from Baseline at Week 8 in Automated Office-Measured Diastolic Blood Pressure (Seated SBP Tertile Middle): 6.17 (6.64) mmHg
- Mean (SD) Automated Office-Measured Diastolic Blood Pressure at Wk 8 (Sex Female): 70.87 (10.51) mmHg
- Mean (SD) Automated Office-Measured Systolic Blood Pressure at Wk 8 (Sex Female): 132.40 (15.95) mmHg
- Mean (SD) Change from Baseline at Week 8 in Automated Office-Measured Diastolic Blood Pressure (Sex Female): −3.67 (7.27) mmHg
- Mean (SD) Change from Baseline at Week 8 in Automated Office-Measured Systolic Blood Pressure (Sex Female): −13.17 (12.05) mmHg
- Mean (SD) Automated Office-Measured Diastolic Blood Pressure at Wk 8 (Sex Male): 76.20 (6.81) mmHg
- Mean (SD) Automated Office-Measured Systolic Blood Pressure at Wk 8 (Sex Male): 129.60 (11.45) mmHg
- Mean (SD) Change from Baseline at Week 8 in Automated Office-Measured Diastolic Blood Pressure (Sex Male): −8.15 (8.28) mmHg
- Mean (SD) Change from Baseline at Week 8 in Automated Office-Measured Systolic Blood Pressure (Sex Male): −15.45 (15.48) mmHg
- Mean (SD) Automated Office-Measured Systolic Blood Pressure at Wk 8 [1]: 139.11 (15.36) mmHg
- Mean (SD) Change from Baseline at Week 8 in Automated Office-Measured Systolic Blood Pressure [1]: −19.06 (12.91) mmHg
- Mean (SD) Automated Office-Measured Systolic Blood Pressure at Wk 8 [2]: 129.86 (9.26) mmHg
- Mean (SD) Change from Baseline at Week 8 in Automated Office-Measured Systolic Blood Pressure [2]: −4.71 (8.58) mmHg
- Mean (SD) Automated Office-Measured Systolic Blood Pressure at Wk 8 [3]: 124.56 (13.30) mmHg
- Mean (SD) Change from Baseline at Week 8 in Automated Office-Measured Systolic Blood Pressure [3]: −16.39 (13.97) mmHg
- Automated Office-Measured Diastolic Blood Pressure, Week 8, Mean (SD) [4]: 72.40 (10.54) mmHg
- Mean (SD) Automated Office-Measured Systolic Blood Pressure at Wk 8 [4]: 135.80 (9.10) mmHg
